Source: ChEMBL document CHEMBL2074292, “Isolation, characterization and differential gene expression of multispecific organic anion transporter 2 in mice” (Mol Pharmacol, 2002)

Legend:
[1] = molecular target: T1, Solute carrier family 22 member 7 (Mus musculus, UniProt Q91WU2); experiment: (§1) TP_TRANSPORTER: uptake in Xenopus laevis oocytes; type: functional, cell-based; conditions: oocyte
T1 sequence (Q91WU2 whole entry): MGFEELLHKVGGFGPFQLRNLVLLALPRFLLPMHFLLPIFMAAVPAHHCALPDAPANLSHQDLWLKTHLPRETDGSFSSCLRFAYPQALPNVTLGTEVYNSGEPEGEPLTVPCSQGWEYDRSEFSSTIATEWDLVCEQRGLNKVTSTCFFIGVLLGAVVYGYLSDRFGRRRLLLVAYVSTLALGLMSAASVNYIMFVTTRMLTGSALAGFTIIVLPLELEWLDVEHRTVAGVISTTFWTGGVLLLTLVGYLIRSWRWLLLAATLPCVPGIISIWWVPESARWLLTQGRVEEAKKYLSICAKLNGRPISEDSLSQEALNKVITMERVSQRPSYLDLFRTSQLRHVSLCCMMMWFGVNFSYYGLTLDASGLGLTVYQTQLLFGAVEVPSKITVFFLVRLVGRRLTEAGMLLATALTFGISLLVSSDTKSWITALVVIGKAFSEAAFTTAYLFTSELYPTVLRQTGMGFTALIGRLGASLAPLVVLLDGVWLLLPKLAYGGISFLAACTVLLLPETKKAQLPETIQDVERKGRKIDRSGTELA

[2] = molecular target: T1, Solute carrier family 22 member 7; experiment: TP_TRANSPORTER: inhibition of Glutarate uptake (Glutarate: 5 uM, Cefoperazone: 1000 uM) in Xenopus laevis oocytes; type: functional, cell-based; conditions: oocyte
[3] = molecular target: T1, Solute carrier family 22 member 7; experiment: TP_TRANSPORTER: inhibition of Glutarate uptake (Glutarate: 5 uM, BSP: 250 uM) in Xenopus laevis oocytes; type: functional, cell-based; conditions: oocyte
[4] = molecular target: T1, Solute carrier family 22 member 7; experiment: TP_TRANSPORTER: inhibition of Glutarate uptake (Glutarate: 5 uM, Erythromycin: 1000 uM) in Xenopus laevis oocytes; type: functional, cell-based; conditions: oocyte
[5] = molecular target: T1, Solute carrier family 22 member 7; experiment: TP_TRANSPORTER: inhibition of Glutarate uptake (Glutarate: 5 uM, ICG: 1000 uM) in Xenopus laevis oocytes; type: functional, cell-based; conditions: oocyte
[6] = molecular target: T1, Solute carrier family 22 member 7; experiment: TP_TRANSPORTER: inhibition of Glutarate uptake (Glutarate: 5 uM, Oxaloacetate: 1000 uM) in Xenopus laevis oocytes; type: functional, cell-based; conditions: oocyte
[7] = molecular target: T1, Solute carrier family 22 member 7; experiment: TP_TRANSPORTER: inhibition of Glutarate uptake (Glutarate: 5 uM, Enalapril: 1000 uM) in Xenopus laevis oocytes; type: functional, cell-based; conditions: oocyte
[8] = substrate: CCCCC[C@H](O)/C=C/[C@H]1[C@H](O)CC(=O)[C@@H]1C/C=C\CCCC(=O)O; experiment: as §1; type: functional, cell-based, Oocyte
[9] = substrate: O=C(O)CCCC(=O)O; experiment: as §1; type: functional, cell-based, Oocyte

`CCCC(CCC)C(=O)O` [VALPROIC ACID] was tested, and the Activity [1] was “substrate [+]”.

`Oc1ncnc2[nH]ncc12` [ALLOPURINOL] was tested, and the Activity [1] was “substrate [+]”.

`CCN1CCN(C(=O)N[C@@H](C(=O)N[C@@H]2C(=O)N3C(C(=O)O)=C(CSc4nnnn4C)CS[C@H]23)c2ccc(O)cc2)C(=O)C1=O` [CEFOPERAZONE] was tested, and the Activity [2] was “inhibitor [(at a rough estimate) 40 % of control]”.

In the case of `O=C1OC(c2ccc(O)c(S(=O)(=O)[O-])c2)(c2ccc(O)c(S(=O)(=O)[O-])c2)c2c(Br)c(Br)c(Br)c(Br)c21.[Na+].[Na+]` [SULFOBROMOPHTHALEIN SODIUM], the Activity [3] is reported as “inhibitor [(at a rough estimate) 25 % of control]”.

`O=C(O)CCC(=O)C(=O)O` [ALPHA-KETOGLUTARIC ACID] was tested, and the Activity [1] was “substrate [+]”.

`CC[C@H]1OC(=O)[C@H](C)[C@@H](O[C@H]2C[C@@](C)(OC)[C@@H](O)[C@H](C)O2)[C@H](C)[C@@H](O[C@@H]2O[C@H](C)C[C@H](N(C)C)[C@H]2O)[C@](C)(O)C[C@@H](C)C(=O)[C@H](C)[C@@H](O)[C@]1(C)O` [ERYTHROMYCIN] was tested, and the Activity [4] was “inhibitor [(at a rough estimate) 20 % of control]”.

`O=C(O)c1ccccc1O` [SALICYLIC ACID] was tested, and the Activity [1] was “is not a substrate [-]”.

In the case of `Nc1ccc(C(=O)NCC(=O)O)cc1` [AMINOHIPPURIC ACID], the Activity [1] is reported as “substrate [+]”.

`C[C@@H]1Cc2c(Cl)cc(C(=O)N[C@@H](Cc3ccccc3)C(=O)O)c(O)c2C(=O)O1` [3R14S-OCHRATOXIN A] was tested, and the Activity [1] was “substrate [+]”.

In the case of `CC1(C)C(/C=C/C=C/C=C/C=C2/N(CCCCS(=O)(=O)[O-])c3ccc4ccccc4c3C2(C)C)=[N+](CCCCS(=O)(=O)[O-])c2ccc3ccccc3c21.[Na+]` [INDOCYANINE GREEN], the Activity [5] is reported as “inhibitor [(at a rough estimate) 30 % of control]”.

`O=C(O)CC(=O)C(=O)O` [OXALOACETATE] was tested, and the Activity [6] was “inhibitor [(at a rough estimate) 45 % of control]”.

For `CCOC(=O)[C@H](CCc1ccccc1)N[C@@H](C)C(=O)N1CCC[C@H]1C(=O)O` [ENALAPRIL], the Activity [7] was “inhibitor [(at a rough estimate) 30 % of control]”.

B1: Solute carrier family 22 member 7 (Mus musculus) (protein)
chain: T1 sequence (Q91WU2 whole entry)
Molecule B1 has a Km [8] of 0.0052 µM and a Km [9] of 15.8 µM.
